Laboratory results taken from patent publication US9242996B2 (Novartis AG, priority 2013, dated 2016).

Biological target: activated ERK2 (Homo sapiens (Human), UniProt P28482)
Assay: Activated ERK2 (20 pM) Kinase Assay (AlphaScreen, ERKtide phosphorylation)
Format: biochemical
Conditions: 0.02 nM ERK2, 400 nM ERKtide peptide, 35 μM ATP, 30 min preincubation
Description: Activated ERK2 (20 pM) Kinase Assay:
The assay was carried out in 20 mM HEPES [pH 7.5], 5 mM MgCl2, 1 mM DTT, 0.01% Tween-20, 0.05% BSA using 0.02 nM ERK2, 400 nM ERKtide peptide and 35 μM ATP (all concentrations are final in the reaction) in a total volume of 10.25 μL. […] Compound dilution series were prepared in 100% DMSO. ERK2 was preincubated with compounds for 30 minutes at ambient temperature. Reaction was initiated by addition of a substrate cocktail of ERKtide peptide and ATP and was allowed to proceed for 4 hours at ambient temperature. Reaction was terminated by addition of 10 μL of a 2× stop buffer consisting of 100 mM Tris-Cl [pH 7.5], 25 mM EDTA, 0.01% Tween 20, 20 μg/mL of AlphaScreen Protein A Acceptor Beads, 20 μg/mL of Streptavidin Donor Beads (PerkinElmer, Waltham, Mass.), and 1:1000 dilution phospho-EGF Receptor (Thr669) antibody (Cat #8808, Cell Signaling Technology, Danvers, Mass.). Terminated reactions were read, after overnight incubation in the dark, on an EnVision Multilabel Plate Reader (PerkinElmer, Waltham, Mass.), with excitation and emission wavelengths set to 680 nm and 570 nm, respectively. IC50 values were determined using a four-parameter fit.

Chain of activated ERK2 (P28482 whole entry): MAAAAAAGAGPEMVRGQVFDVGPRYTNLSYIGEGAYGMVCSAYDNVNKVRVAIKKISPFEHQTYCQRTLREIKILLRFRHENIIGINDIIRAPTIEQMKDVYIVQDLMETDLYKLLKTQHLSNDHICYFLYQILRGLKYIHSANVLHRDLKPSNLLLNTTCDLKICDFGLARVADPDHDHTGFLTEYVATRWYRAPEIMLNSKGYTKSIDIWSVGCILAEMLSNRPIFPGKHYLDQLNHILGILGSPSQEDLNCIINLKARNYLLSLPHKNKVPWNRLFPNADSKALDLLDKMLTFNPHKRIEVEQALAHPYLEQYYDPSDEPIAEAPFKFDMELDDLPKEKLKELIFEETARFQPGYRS

| Compound | IC50 [nM] |
| --- | --- |
| Cn1nncc1-c1cnc(N)c(-c2ccc(C(=O)N[C@H](CO)c3cccc(Br)c3)c(F)c2)c1 [Example 266, (S)-4-(2-amino-5-(1-methyl-1H-1,2,3-triazol-5-yl)pyridin-3-yl)-N-(1-(3-bromophenyl)-2-hydroxyethyl)-2-fluorobenzamide] | 0.0487 |
| Cc1nn(C)cc1-c1cnc(N)c(-c2ccc(C(=O)N[C@H](CO)c3cc(F)cc(C(F)F)c3)c(F)c2)c1 [Example 270, (S)-4-(2-amino-5-(1,3-dimethyl-1H-pyrazol-4-yl)pyridin-3-yl)-N-(1-(3-(difluoromethyl)-5-fluorophenyl)-2-hydroxyethyl)-2-fluorobenzamide] | 0.0467 |
| Cc1c(-c2cnc(N)c(-c3ccc(C(=O)N[C@H](CO)c4cc(F)cc(C(F)F)c4)c(F)c3)c2)cnn1C(F)F [Example 273, (S)-4-(2-amino-5-(1-(difluoromethyl)-5-methyl-1H-pyrazol-4-yl)pyridin-3-yl)-N-(1-(3-(difluoromethyl)-5-fluorophenyl)-2-hydroxyethyl)-2-fluorobenzamide] | 0.0482 |
| Cc1nn(C(F)F)cc1-c1cnc(N)c(-c2ccc(C(=O)N[C@H](CO)c3cc(F)cc(C(F)F)c3)c(F)c2)c1 [Example 274, (S)-4-(2-amino-5-(1-(difluoromethyl)-3-methyl-1H-pyrazol-4-yl)pyridin-3-yl)-N-(1-(3-(difluoromethyl)-5-fluorophenyl)-2-hydroxyethyl)-2-fluorobenzamide] | 0.0312 |
| Cc1c(-c2cnc(N)c(-c3ccc(C(=O)N[C@H](CO)c4cccc(C(F)F)c4)c(F)c3)c2)cnn1C(F)F [Example 275, (S)-4-(2-amino-5-(1-(difluoromethyl)-5-methyl-1H-pyrazol-4-yl)pyridin-3-yl)-N-(1-(3-(difluoromethyl)phenyl)-2-hydroxyethyl)-2-fluorobenzamide] | 0.0745 |
| Cc1c(-c2cnc(N)c(-c3ccc(C(=O)N[C@H](CO)c4cccc(C(F)F)c4)c(F)c3)c2)cnn1C [Example 276, (S)-4-(2-amino-5-(1,5-dimethyl-1H-pyrazol-4-yl)pyridin-3-yl)-N-(1-(3-(difluoromethyl)phenyl)-2-hydroxyethyl)-2-fluorobenzamide] | 0.0371 |
| Cc1nn(C)cc1-c1cnc(N)c(-c2ccc(C(=O)N[C@H](CO)c3cccc(C(F)F)c3)c(F)c2)c1 [Example 277, (S)-4-(2-amino-5-(1,3-dimethyl-1H-pyrazol-4-yl)pyridin-3-yl)-N-(1-(3-(difluoromethyl)phenyl)-2-hydroxyethyl)-2-fluorobenzamide] | 0.0707 |
| Cc1c(-c2cnc(N)c(-c3ccc(C(=O)N[C@H](C)c4cc(F)cc(S(C)(=O)=O)c4)c(F)c3)c2)cnn1C(F)F [Example 278, (R)-4-(2-amino-5-(1-(difluoromethyl)-5-methyl-1H-pyrazol-4-yl)pyridin-3-yl)-2-fluoro-N-(1-(3-fluoro-5-(methylsulfonyl)phenyl)ethyl) benzamide] | 0.146 |
| Cn1nncc1-c1cnc(N)c(-c2ccc(C(=O)N[C@H](CO)c3cccc(C(F)F)c3)c(F)c2)c1 [Example 301] | 0.0933 |
| Nc1ncc(C2CCOCC2)nc1-c1ccc(C(=O)N[C@@H](C#CC2CC2)CO)c(F)c1 [Example 321, (S)-4-(3-amino-6-(tetrahydro-2H-pyran-4-yl)pyrazin-2-yl)-N-(4-cyclopropyl-1-hydroxybut-3-yn-2-yl)-2-fluorobenzamide] | 84.9 |
| C[C@@H](O)[C@@H](NC(=O)c1ccc(-c2nc(C3CCOCC3)cnc2N)cc1F)c1cccc(Cl)c1 [Example 331, 4-(3-amino-6-(tetrahydro-2H-pyran-4-yl)pyrazin-2-yl)-N-((1S,2R)-1-(3-chlorophenyl)-2-hydroxypropyl)-2-fluorobenzamide] | 0.0645 |
| C[C@@H](O)[C@@H](NC(=O)c1ccc(-c2cc(-c3cnn(C)c3)cnc2N)cc1F)c1cccc(Cl)c1 [Example 332, 4-(2-amino-5-(1-methyl-1H-pyrazol-4-yl)pyridin-3-yl)-N-((1S,2R)-1-(3-chlorophenyl)-2-hydroxypropyl)-2-fluorobenzamide] | 0.815 |
| Nc1ncc([C@H]2CC[C@H](O)CC2)nc1-c1ccc(C(=O)N[C@H](CO)c2cc(F)cc(C(F)F)c2)c(F)c1 [Example 337, 4-(3-amino-6-((1r,4S)-4-hydroxycyclohexy)pyrazin-2-yl)-N-((S)-1-(3-(difluoromethyl)-5-fluorophenyl)-2-hydroxyethyl)-2-fluorobenzamide] | 0.0435 |
| Nc1ncc([C@H]2CC[C@H](O)CC2)nc1-c1ccc(C(=O)N[C@H](CO)c2cccc(C(F)(F)F)c2)c(F)c1 [Example 340, 4-(3-amino-6-((1r,4S)-4-hydroxy-cyclohexyl)pyrazin-2-yl)-2-fluoro-N-((S)-2-hydroxy-1-(3-(trifluoromethyl)phenyl)ethyl) benzamide] | 187 |

Other lines, results leading:

| IC50 [nM] | Compound |
| --- | --- |
| 0.0158 | Cn1nncc1-c1cnc(N)c(-c2ccc(C(=O)N[C@H](CO)c3cc(F)cc(I)c3)c(F)c2)c1 [Example 267, (S)-4-(2-amino-5-(1-methyl-1H-1,2,3-triazol-5-yl)pyridin-3-yl)-2-fluoro-N-(1-(3-fluoro-5-iodophenyl)-2-hydroxyethyl) benzamide] |
| 0.0308 | Cc1c(-c2cnc(N)c(-c3ccc(C(=O)N[C@H](CO)c4cc(F)cc(C(F)F)c4)c(F)c3)c2)cnn1C [Example 271, (S)-4-(2-amino-5-(1,5-dimethyl-1H-pyrazol-4-yl)pyridin-3-yl)-N-(1-(3-(difluoromethyl)-5-fluorophenyl)-2-hydroxyethyl)-2-fluorobenzamide] |
| 0.005 | NC[C@@H](NC(=O)c1ccc(-c2nc([C@@H]3CC[C@@H](O)[C@H](F)C3)cnc2N)cc1F)c1cc(F)cc(I)c1 [Example 315, N-((S)-2-amino-1-(3-fluoro-5-iodophenyl)ethyl)-4-(3-amino-6-((1R,3R,4R)-3-fluoro-4-hydroxy-cyclohexyl)pyrazin-2-yl)-2-fluorobenzamide] |
| 0.01 | Nc1ncc(C2CCOCC2)nc1-c1ccc(C(=O)N[C@H](CO)c2cc(F)cc(CF)c2)c(F)c1 [Example 329, (S)-4-(3-amino-6-(tetrahydro-2H-pyran-4-yl)pyrazin-2-yl)-2-fluoro-N-(1-(3-fluoro-5-(fluoromethyl)phenyl)-2-hydroxyethyl) benzamide] |
| 0.0222 | Nc1ncc(C2CCOCC2)nc1-c1ccc(C(=O)N[C@H](CO)c2cc(F)cc(Cl)c2)c(F)c1 [Example 330, (S)-4-(3-amino-6-(tetrahydro-2H-pyran-4-yl)pyrazin-2-yl)-N-(1-(3-chloro-5-fluorophenyl)-2-hydroxyethyl)-2-fluorobenzamide] |
| 0.0208 | Nc1ncc(C2CCOCC2)nc1-c1ccc(C(=O)N[C@H](CO)c2cc(F)cc(C(F)F)c2)c(F)c1 [Example 335, (S)-4-(3-amino-6-(tetrahydro-2H-pyran-4-yl)pyrazin-2-yl)-N-(1-(3-(difluoromethyl)-5-fluorophenyl)-2-hydroxyethyl)-2-fluorobenzamide] |
| 0.0143 | CNC[C@@H](NC(=O)c1ccc(-c2nc(C3CCOCC3)cnc2N)cc1F)c1cc(F)cc(Cl)c1 [Example 336, (S)-4-(3-amino-6-(tetrahydro-2H-pyran-4-yl)pyrazin-2-yl)-N-(1-(3-chloro-5-fluorophenyl)-2-(methylamino)ethyl)-2-fluorobenzamide] |
